Here are results for six compounds from patent publication EP0677293A1, “PHARMACEUTICAL USE OF TERPYRIDINE DERIVATIVE” (priority 1992, dated 1994).

Each structure is given as a SMILES string. Read-outs that look alike come from different tables or passages of the source.

For data set [1], the system named is both common carotid artery-occlusion model Mongolian gerbils. As to the kind of experiment: Test on delayed neuronal death induced by cerebral ischemia (3 min occlusion of both common carotid arteries, histology of hippocampus after 7 days). In kind it is in vivo. Particulars: for Incidence Frequency of Neuronal Damage -: score 0 (-), normal neurons; for Incidence Frequency of Neuronal Damage +: score 1 (+), a few neurons damaged; for Incidence Frequency of Neuronal Damage ++: score 2 (++), many neurons damaged; for Incidence Frequency of Neuronal Damage +++: score 3 (+++), majority of neurons damaged. Here is the method: Neuronal damages induced by cerebral ischemia was evaluated in the both common carotid artery-occlusion model Mongolian gerbils. Male Monglian gerbils, supplied by Shin Nihon Dobutsu Co., Ltd., Saitama, Japan and weighing 60 to 90 g. The gerbils were anesthetized lightly with ether and placed in the supine position. After local infiltration of xylocaine, both common carotid arteries were exposed through a ventral midline incision. The arteries were then clamped with aneurysm clips for 3 minutes. Thereafter the clips were removed and the skin was sutured. Sham operated animals were treated in the same manner, except that clamping was not done. The animals were anesthetized with ether 7 days after the bilateral common carotid arteries had been occluded for 3 minutes, and the brains were perfused with a 10% buffered formalin solution given through the left cardiac ventricle. The hippocampal region was cut coronally into 3- to 4-mm thick slices, embedded in paraffin and processed using the step section technique. The preparations were stained with hematoxylin and eosin. Ischemic neuronal damage was graded on 4 levels from scores 0 to 3: score 0 (-), normal neurons; score 1 (+), a few neurons damaged (as few as one neuron damaged); score 2 (++), many neurons damaged; and score 3 (+++), majority of neurons damaged. Compounds to be tested were suspended in gum arabic or dissolved in physiological saline, which was intraperitoneally given at determined times in doses of 10 mg/kg to 100 mg/kg, before and after the induced ischemia.

Data set [2] relates to Astroglial cells derived from the mouse forebrain. Description: Synthesis-stimulating activity on NGF (NGF level in culture medium by enzyme immunoassay). Format: cell-based. As to conditions: ratio to DMSO control = 1.0. The method, then:
The activity of accelerating secretion of NGF was evaluated by the following method.
Each compound shown in Table 1 was dissolved in dimethylsulfoxide (DMSO) to adjust the concentration in the range of 2 mg/ml to 10 mg/ml.
Astroglial cells derived from the mouse forebrain (cells that synthesize and secrete NGF)
Astroglial cells obtained from the mouse forebrain were cultured into 8 x 10⁵ cells/ml in Dulbecco's modified Eagle's medium obtained from Gibco, glucose-rich, containing 20% fetal calf serum, 100 units/ml of penicillin and 100 µg/ml of streptomycin. A 0.1 ml/well aliquot was inoculated on a 96-well plate obtained from Falcon and having an area of 0.32 cm² per well and cultured at 37°C in an atmosphere of 5% CO₂. The culture medium was removed 72 hours later and instead, a 0.1 ml/well aliquot of fresh Dulbecco's modified Eagle's medium containing 0.5% bovine albumin powders obtained from Armour, 100 units/ml of penicillin and 100 µg/ml of streptomycin was supplemented to the system followed by culturing at 37°C in 5% CO₂. The above medium containing the compound each having various concentrations was exchanged 72 hours later. For the purpose of comparison, the medium which contains only DMSO was also prepared (control).
The synthesis-stimulating activity on NGF by the compound of the present invention is shown in terms of a ratio when the NGF level in the control containing only DMSO was made 1.0.

The test system of data set [3] is Cerebral cortical neuronal cells from an 18-day-old rat embryo. As to the kind of experiment: Test on neurotrophic activity (living cells counted by fluorescein diacetate fluorescence, with or without hypoxic load). Format: cell-based. Here is the method: The neurotrophic activity was determined by the following method. Each compound was dissolved in DMSO to adjust the concentration in the range of 2 mg/ml to 10 mg/ml. Cerebral cortical neuronal cells from an 18-day-old rat embryo […] After 24 hours of incubation, the culture medium was removed and a 0.5 ml/well aliquot of a serum-free fresh DF medium containing the respective compounds having various concentrations, 5 µg/ml of transferrin, 5 µg/ml of insulin and 20 pmoles/ml of progesterone was supplemented to the system. For the purpose of comparison, the medium containing only DMSO was added was also prepared. At this stage, the two same plates were used. After 72 hours of incubation in various medium, hypoxia was loaded on one plate by reducing the concentration of oxygen to the minimum concentration of 1% using a N₂-O₂-CO₂ incubator (manufactured by Tabai, Model BNP-100) and culturing for 4 hours under the conditions. Another plate was cultured in an atmosphere of 5% CO₂ and 95% air, without hypoxic load. After the incubation was continued for further 48 hours, living cells were counted. The culture medium was removed and fluorescein diacetate (FDA) reagent was reacted. After washing with phosphate buffer, pH 7.4, the fluorescent intensity (E x 485/Em 530) was measured by CytoFlour^TM 2300, manufactured by Millipore.

Where [4] appears, read: dose 100 mg/kg, intraperitoneally, immediately after ischemia.
Setting [5] is: dose 10, intraperitoneally, 30 mins after ischemia.
[6] abbreviates: dose 10, intraperitoneally, 1 hour after ischemia.
[7] abbreviates: dose 10, intraperitoneally, immediately after ischemia.
Where [8] appears, read: no hypoxic load, ratio of fluorescent intensity to DMSO control = 1.0, read-out: Neurotrophic Activity No Hypoxic Load.
The mark [9] stands for this setting: 4 h, hypoxic load (1% oxygen, 4 hours), ratio of fluorescent intensity to DMSO control = 1.0, read-out: Neurotrophic Activity Hypoxic Load.
Setting [10] is: dose 100 mg/kg, intraperitoneally, before 30 mins.

For `Cc1ccc(-c2cc(-c3ccccn3)nc(-c3ccccn3)c2)cc1` [Compound 5, 4'-(4-Methylphenyl)-2,2':6',2''-terpyridine], in data set [1] (setting [4]), the Incidence Frequency of Neuronal Damage - worked out at 25%, the Incidence Frequency of Neuronal Damage + stood at 50%, the Incidence Frequency of Neuronal Damage ++ is 0% and the Incidence Frequency of Neuronal Damage +++ came to 25%. For the same compound, the fold induction at 20 µg/mL in data set [2] (Mus musculus, 24 h) stood at 10.1. In data set [2] (Mus musculus, 24 h, 100 µg/ml), the fold induction at 100 µg/mL is 9.8.
As for `Cc1ccc(-c2cc(-c3ccccn3)nc(-c3ccccn3)c2)cc1.Cl.Cl.Cl` [Compound 6, 4'-(4-Methylphenyl)-2,2':6',2''-terpyridin trihydrochloride], the “damages of the hippocampal CAl neurons” value in data set [1] (intraperitoneally given 30 minutes after or an hour after the ischemia had been induced) is listed as “prevented damages of the hippocampal CAl neurons”. Besides, in data set [1] (setting [5]), the Incidence Frequency of Neuronal Damage - is 25%, the Incidence Frequency of Neuronal Damage + was determined as 37.5%, the Incidence Frequency of Neuronal Damage ++ stood at 12.5% and the Incidence Frequency of Neuronal Damage +++ turned out to be 25%. Also, in data set [1] (setting [6]), the Incidence Frequency of Neuronal Damage - worked out at 0%, the Incidence Frequency of Neuronal Damage + was 50%, the Incidence Frequency of Neuronal Damage ++ was 25% and the Incidence Frequency of Neuronal Damage +++ was determined as 25%. Further, in data set [1] (setting [7]), the Incidence Frequency of Neuronal Damage - is 0%, the Incidence Frequency of Neuronal Damage + was found to be 75%, the Incidence Frequency of Neuronal Damage ++ is 0% and the Incidence Frequency of Neuronal Damage +++ turned out to be 25%. In addition, the “Synthesis-Stimulating Activity on NGF” value in data set [2] (100 µg/ml, 24 hours) amounted to 5.0. In data set [2] (Mus musculus, 24 h), the fold induction at 10 µg/mL was determined as 2 and the fold induction at 30 µg/mL turned out to be 3.3.
For `CCCCCCCCCCCCCCCCCc1cc[n+](Cc2ccc(-c3cc(-c4ccccn4)nc(-c4ccccn4)c3)cc2)cc1` [Compound 27, 4-Heptadecyl-1-[4-(2,2':6',2''-terpyridin-4'-yl)phenylmethyl]pyridinium bromide], in data set [3] (setting [8]), the viability at 2 µg/mL came out at 200% and the viability at 10 µg/mL was 190%. Besides, in data set [3] (setting [9]), the viability at 2 µg/mL is 150% and the viability at 10 µg/mL came out at 200%. Also, the fold induction at 20 µg/mL in data set [2] (Mus musculus, 24 h) worked out at 1. In addition, in data set [2] (Mus musculus, 24 h, 100 µg/ml), the fold induction at 100 µg/mL is 1.2.
As for `CCCCCCCCC(CCCCCCCC)c1cc[n+](Cc2ccc(-c3cc(-c4ccccn4)nc(-c4ccccn4)c3)cc2)cc1` [Compound 28, 4-(1-Octylnonyl)-1-[4-(2,2':6',2''-terpyridin-4'-yl)phenylmethyl]pyridinium bromide], in data set [3] (setting [8]), the viability at 2 µg/mL was 260% and the viability at 10 µg/mL turned out to be 130%. Moreover, in data set [3] (setting [9]), the viability at 2 µg/mL was 310% and the viability at 10 µg/mL worked out at 380%. Besides, the fold induction at 20 µg/mL in data set [2] (Mus musculus, 24 h) was 3.6. For the same compound, the fold induction at 100 µg/mL in data set [2] (Mus musculus, 24 h, 100 µg/ml) worked out at 2.5.
Consider `CCCCCCCCCCCCCCCCC(CCCCCCCCCCCCCCCC)c1cc[n+](Cc2ccc(-c3cc(-c4ccccn4)nc(-c4ccccn4)c3)cc2)cc1.[Br-]` [Compound 29, 4-(1-Hexadecylheptadecyl)-1-[4-(2,2':6',2''-terpyridin-4'-yl)phenylmethyl]pyridinium bromide], for which, in data set [1] (setting [10]), the Incidence Frequency of Neuronal Damage - came to 42.9%, the Incidence Frequency of Neuronal Damage + came out at 14.3%, the Incidence Frequency of Neuronal Damage ++ was 14.3% and the Incidence Frequency of Neuronal Damage +++ came to 28.6%. Also, in data set [3] (setting [8]), the viability at 2 µg/mL came out at 610% and the viability at 10 µg/mL was determined as 570%. Further, in data set [3] (setting [9]), the viability at 2 µg/mL stood at 500% and the viability at 10 µg/mL came to 300%. The fold induction at 3 µg/mL in data set [2] (Mus musculus, 24 h, 3 µg/ml) is 1. Further, in data set [2] (Mus musculus, 24 h), the fold induction at 10 µg/mL is 2 and the fold induction at 30 µg/mL is 7.6. The fold induction at 100 µg/mL in data set [2] (Mus musculus, 24 h, 100 µg/ml) stood at 13.
With `c1ccc(-c2cc(-c3ccncc3)cc(-c3ccccn3)n2)nc1` [Compound 30, 4'-(4-Pyridyl)-2,2':6',2''-terpyridine], in data set [1] (setting [4]), the Incidence Frequency of Neuronal Damage - came out at 100%, the Incidence Frequency of Neuronal Damage + came out at 0%, the Incidence Frequency of Neuronal Damage ++ came out at 0% and the Incidence Frequency of Neuronal Damage +++ is 0%. Moreover, in data set [3] (setting [8]), the viability at 2 µg/mL was 420% and the viability at 10 µg/mL was 120%. Besides, in data set [3] (setting [9]), the viability at 2 µg/mL was 530% and the viability at 10 µg/mL was 130%. Also, in data set [2] (Mus musculus, 24 h, 2 µg/ml, 24 hours, read-out: Synthesis-Stimulating Activity on NGF), the fold induction at 2 µg/mL was 1. In data set [2] (Mus musculus, 24 h), the fold induction at 10 µg/mL is 1.2. For the same compound, the fold induction at 50 µg/mL in data set [2] (Mus musculus, 24 h, 50 µg/ml, 24 hours, read-out: Synthesis-Stimulating Activity on NGF) came to 1.2.
